Assays:
[1] = system: D-542MG; assay: cells; type: functional, cell-based; details: Homo sapiens
Description: SANGER: Inhibition of human D-542MG cell growth in a cell viability assay.

[2] = system: DG-75; assay: cells; type: functional, cell-based, Homo sapiens; details: Homo sapiens, DG-75;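 also: growth inhibition of DG-75 cells, read out with a cell viability assay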
Description: SANGER: Inhibition of human DG-75 cell growth in a cell viability assay.

[3] = system: DMS-153; assay: cells; type: functional, cell-based, Homo sapiens; details: Homo sapiens, DMS-153
Description: SANGER: Inhibition of human DMS-153 cell growth in a cell viability assay.

[4] = system: Daudi; assay: cells; type: functional, cell-based, Homo sapiens; details: Homo sapiens, Daudi;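 also: growth inhibition of Daudi cells, read out by a viability assay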
Description: SANGER: Inhibition of human Daudi cell growth in a cell viability assay.

[5] = system: DoTc2-4510; assay: cells; type: functional, cell-based; details: Homo sapiens
[6] = system: EFM-19; assay: cells; type: functional, cell-based; details: Homo sapiens;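 also: growth inhibition of human EFM-19 cells, measured in a cell viability assay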
Description: SANGER: Inhibition of human EFM-19 cell growth in a cell viability assay.

[7] = system: EHEB; assay: cells; type: functional, cell-based; details: Homo sapiens;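 also: growth inhibition of human EHEB cells, read out with a cell viability assay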
Description: SANGER: Inhibition of human EHEB cell growth in a cell viability assay.

[8] = system: GCT; assay: cells; type: functional, cell-based; details: Homo sapiens;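 also: GCT cell line proliferation inhibition, read out with a cell viability assay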
Description: SANGER: Inhibition of human GCT cell growth in a cell viability assay.

[9] = system: GDM-1; assay: cells; type: functional, cell-based, Homo sapiens; details: Homo sapiens, GDM-1; read-out: IC50;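 also: cell viability readout used to measure growth inhibition of human GDM-1 cells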
Description: SANGER: Inhibition of human GDM-1 cell growth in a cell viability assay.

[10] = system: HCC1419; assay: cells; type: functional, cell-based; details: Homo sapiens;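 also: growth inhibition of human HCC1419 cells, read out as cell viability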
Description: SANGER: Inhibition of human HCC1419 cell growth in a cell viability assay.

[11] = system: HT-1376; assay: cells; type: functional, cell-based; details: Homo sapiens
Description: SANGER: Inhibition of human HT-1376 cell growth in a cell viability assay.

[12] = system: HTC-C3; assay: cells; type: functional, cell-based; details: Homo sapiens;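 also: inhibition of cell growth, read out with a cell viability assay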
Description: SANGER: Inhibition of human HTC-C3 cell growth in a cell viability assay.

[13] = system: HuCCT-1; assay: cells; type: functional, cell-based, HuCCT1; details: Homo sapiens;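 also: growth inhibition of HuCCT-1 cells, read out by a cell viability assay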
Description: SANGER: Inhibition of human HuCCT1 cell growth in a cell viability assay.

[14] = system: KMS-12-PE; assay: cells; type: functional, cell-based, Homo sapiens; details: Homo sapiens, KMS-12-PE;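 also: growth inhibition of human KMS-12-PE cells, measured with a cell viability assay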
Description: SANGER: Inhibition of human KMS-12-PE cell growth in a cell viability assay.

[15] = system: KP-4; assay: cells; type: functional, cell-based; details: Homo sapiens;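 also: human KP-4 cells, with growth inhibition read out through a cell viability assay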
Description: SANGER: Inhibition of human KP-4 cell growth in a cell viability assay.

[16] = system: KYSE-180; assay: cells; type: functional, cell-based; details: Homo sapiens;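 also: growth inhibition of KYSE-180 cells, read out with a cell viability assay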
Description: SANGER: Inhibition of human KYSE-180 cell growth in a cell viability assay.

[17] = system: KYSE-410; assay: cells; type: functional, cell-based; details: Homo sapiens;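 also: growth inhibition of KYSE-410 cells, measured through a cell viability readout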
Description: SANGER: Inhibition of human KYSE-410 cell growth in a cell viability assay.

[18] = system: KYSE-70 cell line; assay: cells; type: functional, cell-based; details: Homo sapiens;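 also: cell viability assay read-out, with IC50 expressing suppression of KYSE-70 cell growth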
Description: SANGER: Inhibition of human KYSE-70 cell growth in a cell viability assay.

[19] = system: LCLC-103H cell line; assay: cells; type: functional, cell-based; details: Homo sapiens
Description: SANGER: Inhibition of human LCLC-103H cell growth in a cell viability assay.

[20] = system: LCLC-97TM1; assay: cells; type: functional, cell-based; details: Homo sapiens;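 also: cell viability assay measuring growth inhibition of human LCLC-97TM1 cells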
Description: SANGER: Inhibition of human LCLC-97TM1 cell growth in a cell viability assay.

[21] = system: LoVo; assay: cells; type: functional, cell-based; details: Homo sapiens;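 also: growth inhibition of human LoVo cells, read out with a cell viability assay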
Description: SANGER: Inhibition of human LoVo cell growth in a cell viability assay.

[22] = system: MC-CAR; assay: cells; type: functional, cell-based, Homo sapiens; details: Homo sapiens, MC-CAR;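 also: growth inhibition of the human MC-CAR cell line, read out by a cell viability assay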
Description: SANGER: Inhibition of human MC-CAR cell growth in a cell viability assay.

[23] = system: MCF7; assay: cells; type: functional, cell-based; details: Homo sapiens;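 also: growth inhibition of human MCF7 cells, read out with a cell viability assay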
Description: SANGER: Inhibition of human MCF7 cell growth in a cell viability assay.

[24] = system: MEL-HO; assay: cells; type: functional, cell-based; details: Homo sapiens
Description: SANGER: Inhibition of human MEL-HO cell growth in a cell viability assay.

[25] = system: MEL-JUSO; assay: cells; type: functional, cell-based; details: Homo sapiens;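 also: growth inhibition of human MEL-JUSO cells, read out with a cell viability assay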
Description: SANGER: Inhibition of human MEL-JUSO cell growth in a cell viability assay.

[26] = system: MONO-MAC-6; assay: cells; type: functional, cell-based, Homo sapiens; details: Homo sapiens, MONO-MAC-6;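 also: cell viability assay measuring growth inhibition of human MONO-MAC-6 cells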
Description: SANGER: Inhibition of human MONO-MAC-6 cell growth in a cell viability assay.

[27] = system: NALM-6; assay: cells; type: functional, cell-based, Homo sapiens; details: Homo sapiens, NALM-6;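 also: growth inhibition of NALM-6 cells, read out with a cell viability assay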
Description: SANGER: Inhibition of human NALM-6 cell growth in a cell viability assay.

[28] = system: NB1; assay: cells; type: functional, cell-based, Homo sapiens; details: Homo sapiens, NB1;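 also: reduction of NB1 cell proliferation, read out with a viability assay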
Description: SANGER: Inhibition of human NB1 cell growth in a cell viability assay.

[29] = system: NCI-H1755; assay: cells; type: functional, cell-based; details: Homo sapiens;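 also: cell viability readout used to measure growth inhibition of NCI-H1755 cells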
Description: SANGER: Inhibition of human NCI-H1755 cell growth in a cell viability assay.

[30] = system: NCI-H1793; assay: cells; type: functional, cell-based; details: Homo sapiens;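 also: cell growth inhibition, read out by a cell viability assay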
Description: SANGER: Inhibition of human NCI-H1793 cell growth in a cell viability assay.

[31] = system: NCI-H1882; assay: cells; type: functional, cell-based, Homo sapiens; details: Homo sapiens, NCI-H1882;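 also: growth inhibition of the cell line, determined with a viability assay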
Description: SANGER: Inhibition of human NCI-H1882 cell growth in a cell viability assay.

[32] = system: NCI-H2087; assay: cells; type: functional, cell-based; details: Homo sapiens;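 also: growth inhibition determined with a cell viability readout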
Description: SANGER: Inhibition of human NCI-H2087 cell growth in a cell viability assay.

[33] = system: NCI-H2228; assay: cells; type: functional, cell-based; details: Homo sapiens;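 also: growth inhibition of human NCI-H2228 cells, read out by a cell viability assay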
Description: SANGER: Inhibition of human NCI-H2228 cell growth in a cell viability assay.

[34] = system: NCI-H2342; assay: cells; type: functional, cell-based; details: Homo sapiens;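 also: growth inhibition of the cancer cell line, determined with a cell viability assay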
Description: SANGER: Inhibition of human NCI-H2342 cell growth in a cell viability assay.

[35] = system: NCI-H524; assay: cells; type: functional, cell-based, Homo sapiens; details: Homo sapiens, NCI-H524;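 also: growth inhibition of human NCI-H524 cells, read out through a cell viability assay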
Description: SANGER: Inhibition of human NCI-H524 cell growth in a cell viability assay.

[36] = system: NCI-H64; assay: cells; type: functional, cell-based, Homo sapiens; details: Homo sapiens, NCI-H64;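 also: growth inhibition of NCI-H64 cells, read out with a cell viability assay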
Description: SANGER: Inhibition of human NCI-H64 cell growth in a cell viability assay.

[37] = system: NCI-H889; assay: cells; type: functional, cell-based, Homo sapiens; details: Homo sapiens, NCI-H889;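 also: cell growth inhibition of the cell line, read out with a viability assay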
Description: SANGER: Inhibition of human NCI-H889 cell growth in a cell viability assay.

[38] = system: OVCAR-3; assay: cells; type: functional, cell-based; details: Homo sapiens;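 also: growth inhibition of human OVCAR-3 cells, determined by a cell viability assay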
Description: SANGER: Inhibition of human OVCAR-3 cell growth in a cell viability assay.

[39] = system: P12-Ichikawa; assay: cells; type: functional, cell-based; details: Homo sapiens
[40] = system: PC-3; assay: cells; type: functional, cell-based; details: Homo sapiens
Description: SANGER: Inhibition of human PC-3 cell growth in a cell viability assay.

[41] = system: Raji; assay: cells; type: functional, cell-based, Homo sapiens; details: Homo sapiens, Raji;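 also: cell viability assay measuring inhibition of Raji cell growth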
Description: SANGER: Inhibition of human Raji cell growth in a cell viability assay.

[42] = system: SK-LU-1; assay: cells; type: functional, cell-based; details: Homo sapiens;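 also: cell viability assay measuring growth inhibition of human SK-LU-1 cells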
Description: SANGER: Inhibition of human SK-LU-1 cell growth in a cell viability assay.

[43] = system: SK-MES-1; assay: cells; type: functional, cell-based; details: Homo sapiens;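 also: growth inhibition of human SK-MES-1 cells, read out with a cell viability assay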
Description: SANGER: Inhibition of human SK-MES-1 cell growth in a cell viability assay.

[44] = system: SK-OV-3; assay: cells; type: functional, cell-based; details: Homo sapiens;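 also: growth inhibition of SK-OV-3 human cells, read out with a cell viability assay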
Description: SANGER: Inhibition of human SK-OV-3 cell growth in a cell viability assay.

[45] = system: SNU-387; assay: cells; type: functional, cell-based; details: Homo sapiens
Description: SANGER: Inhibition of human SNU-387 cell growth in a cell viability assay.

[46] = system: SW13; assay: cells; type: functional, cell-based; details: Homo sapiens;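 also: IC50 is inhibition of SW13 cell growth, read out with a cell viability assay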
Description: SANGER: Inhibition of human SW13 cell growth in a cell viability assay.

[47] = system: A-427; assay: cells; type: functional, cell-based; details: Homo sapiens;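 also: growth inhibition of human A-427 cells, read out by a cell viability assay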
Description: SANGER: Inhibition of human A427 cell growth in a cell viability assay.

[48] = system: A673; assay: cells; type: functional, cell-based; details: Homo sapiens;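 also: growth inhibition of human A673 cells, read out through a cell viability assay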
Description: SANGER: Inhibition of human A673 cell growth in a cell viability assay.

[49] = system: ABC-1; assay: cells; type: functional, cell-based; details: Homo sapiens;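 also: growth inhibition of human ABC-1 cells, read out by a cell viability assay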
Description: SANGER: Inhibition of human ABC-1 cell growth in a cell viability assay.

[50] = system: BT-20; assay: cells; type: functional, cell-based; details: Homo sapiens;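 also: cell viability assay measuring suppression of growth in human BT-20 cells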
Description: SANGER: Inhibition of human BT-20 cell growth in a cell viability assay.

[51] = system: BXPC-3; assay: cells; type: functional, cell-based; details: Homo sapiens;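 also: growth inhibition of human BxPC-3 cells, read out by a cell viability assay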
Description: SANGER: Inhibition of human BxPC-3 cell growth in a cell viability assay.

[52] = system: CAKI-1; assay: cells; type: functional, cell-based; details: Homo sapiens;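 also: growth inhibition of CAKI-1 cells, measured by a cell viability assay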
Description: SANGER: Inhibition of human CAKI-1 cell growth in a cell viability assay.

[53] = system: CAL-120; assay: cells; type: functional, cell-based; details: Homo sapiens;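 also: cell growth inhibition, read out as cell viability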
Description: SANGER: Inhibition of human CAL-120 cell growth in a cell viability assay.

[54] = system: TE-441-T; assay: cells; type: functional, cell-based, Homo sapiens; details: Homo sapiens, TE-441-T
Description: SANGER: Inhibition of human TE-441-T cell growth in a cell viability assay.

[55] = system: U-251; assay: cells; type: functional, cell-based; details: Homo sapiens;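 also: growth inhibition of human U-251 cells, read out through a cell viability assay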
Description: SANGER: Inhibition of human U251 cell growth in a cell viability assay.

[56] = system: UMUC3; assay: cells; type: functional, cell-based; details: Homo sapiens;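 also: growth inhibition of human UM-UC-3 cells, read out with a cell viability assay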
Description: SANGER: Inhibition of human UM-UC-3 cell growth in a cell viability assay.

[57] = system: UMC-11; assay: cells; type: functional, cell-based; details: Homo sapiens;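 also: growth inhibition of UMC-11 cells, read out with a cell viability assay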
Description: SANGER: Inhibition of human UMC-11 cell growth in a cell viability assay.

[58] = system: YAPC; assay: cells; type: functional, cell-based; details: Homo sapiens;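 also: growth inhibition of YAPC cells, measured with a cell viability assay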
Description: SANGER: Inhibition of human YAPC cell growth in a cell viability assay.

[59] = system: CESS; assay: SANGER: Inhibition of human CESS cell growth in a cell viability assay.; type: functional, cell-based; details: Homo sapiens, CESS

C/C(=C\c1csc(C)n1)[C@@H]1C[C@@H]2O[C@]2(C)CCC[C@H](C)[C@H](O)[C@@H](C)C(=O)C(C)(C)[C@@H](O)CC(=O)O1 [PATUPILONE]
IC50 [1]: > 32 nM
IC50 [2]: > 32 nM
IC50 [3]: 29.3 nM
IC50 [4]: 24.8 nM
IC50 [5]: 0.846 nM
IC50 [6]: 10.6 nM
IC50 [7]: 28.9 nM
IC50 [8]: 6.61 nM
IC50 [9]: 4.31 nM
IC50 [10]: > 32 nM
IC50 [11]: 21.2 nM
IC50 [12]: 2.94 nM
IC50 [13]: 2.61 nM
IC50 [14]: > 32 nM
IC50 [15]: 0.682 nM
IC50 [16]: 0.601 nM
IC50 [17]: 1.02 nM
IC50 [18]: 7.58 nM
IC50 [19]: 0.31 nM
IC50 [20]: 0.444 nM
IC50 [21]: 1.85 nM
IC50 [22]: 9.73 nM
IC50 [23]: 0.0866 nM
IC50 [24]: 1.69 nM
IC50 [25]: 0.928 nM
IC50 [26]: 17.4 nM
IC50 [27]: 2.18 nM
IC50 [28]: 14.6 nM
IC50 [29]: > 32 nM
IC50 [30]: 21 nM
IC50 [31]: > 32 nM
IC50 [32]: 3.11 nM
IC50 [33]: 0.473 nM
IC50 [34]: 0.577 nM
IC50 [35]: 23.1 nM
IC50 [36]: 8.25 nM
IC50 [37]: > 32 nM
IC50 [38]: 4.13 nM
IC50 [39]: 11 nM
IC50 [40]: 23.4 nM
IC50 [41]: > 32 nM
IC50 [42]: 0.866 nM
IC50 [43]: 1.24 nM
IC50 [44]: 1.5 nM
IC50 [45]: 5.66 nM
IC50 [46]: 5.01 nM
IC50 [47]: 0.828 nM
IC50 [48]: 2.48 nM
IC50 [49]: 1.68 nM
IC50 [50]: 5.1 nM
IC50 [51]: 1.74 nM
IC50 [52]: 17.3 nM
IC50 [53]: 10.1 nM
IC50 [54]: 26.3 nM
IC50 [55]: 10.8 nM
IC50 [56]: 1.85 nM
IC50 [57]: > 32 nM
IC50 [58]: > 32 nM
IC50 [59]: 3.38 nM

CCCCCCCCCCCC1=C(O)C(=O)C=C(O)C1=O [EMBELIN]
IC50 [1]: 3130 nM
IC50 [2]: > 32000 nM
IC50 [3]: > 32000 nM
IC50 [4]: 5750 nM
IC50 [5]: 14200 nM
IC50 [6]: 4910 nM
IC50 [7]: > 32000 nM
IC50 [8]: > 32000 nM
IC50 [9]: 28000 nM
IC50 [10]: > 32000 nM
IC50 [11]: 5900 nM
IC50 [12]: 12800 nM
IC50 [13]: 9920 nM
IC50 [14]: > 32000 nM
IC50 [15]: > 32000 nM
IC50 [16]: 7580 nM
IC50 [17]: 6380 nM
IC50 [18]: 15100 nM
IC50 [19]: 9060 nM
IC50 [20]: 5960 nM
IC50 [21]: 3870 nM
IC50 [22]: 4580 nM
IC50 [23]: 8350 nM
IC50 [24]: 5110 nM
IC50 [25]: 7850 nM
IC50 [26]: 21800 nM
IC50 [27]: 9090 nM
IC50 [28]: > 32000 nM
IC50 [29]: > 32000 nM
IC50 [30]: > 32000 nM
IC50 [31]: > 32000 nM
IC50 [32]: 5450 nM
IC50 [33]: > 32000 nM
IC50 [34]: 6990 nM
IC50 [35]: > 32000 nM
IC50 [36]: > 32000 nM
IC50 [37]: > 32000 nM
IC50 [38]: 23600 nM
IC50 [39]: 9450 nM
IC50 [40]: 14800 nM
IC50 [41]: 10500 nM
IC50 [42]: 7210 nM
IC50 [43]: 5010 nM
IC50 [44]: 10900 nM
IC50 [45]: 27200 nM
IC50 [46]: 12600 nM
IC50 [47]: > 32000 nM
IC50 [48]: 12600 nM
IC50 [49]: > 32000 nM
IC50 [50]: 14500 nM
IC50 [51]: 6410 nM
IC50 [52]: > 32000 nM
IC50 [53]: 24000 nM
IC50 [54]: > 32000 nM
IC50 [55]: 9690 nM
IC50 [56]: 10100 nM
IC50 [57]: > 32000 nM
IC50 [58]: > 32000 nM
IC50 [59]: 6240 nM

COc1ccc(-c2cc3nccn3c(Nc3ncccc3C(N)=O)n2)cc1OC
IC50 [1]: > 8000 nM
IC50 [2]: > 8000 nM
IC50 [3]: > 8000 nM
IC50 [4]: 607 nM
IC50 [5]: 1060 nM
IC50 [6]: > 8000 nM
IC50 [7]: 3790 nM
IC50 [8]: 799 nM
IC50 [9]: 683 nM
IC50 [10]: > 8000 nM
IC50 [11]: 3250 nM
IC50 [12]: > 8000 nM
IC50 [13]: > 8000 nM
IC50 [14]: > 8000 nM
IC50 [15]: > 8000 nM
IC50 [16]: 5620 nM
IC50 [17]: 7220 nM
IC50 [18]: > 8000 nM
IC50 [19]: 3080 nM
IC50 [20]: 570 nM
IC50 [21]: 2610 nM
IC50 [22]: 1140 nM
IC50 [23]: 1150 nM
IC50 [24]: 2950 nM
IC50 [25]: 2740 nM
IC50 [26]: 963 nM
IC50 [27]: 417 nM
IC50 [28]: 1710 nM
IC50 [29]: > 8000 nM
IC50 [30]: > 8000 nM
IC50 [31]: > 8000 nM
IC50 [32]: 2790 nM
IC50 [33]: 4340 nM
IC50 [34]: 1820 nM
IC50 [35]: > 8000 nM
IC50 [36]: 2160 nM
IC50 [37]: > 8000 nM
IC50 [38]: > 8000 nM
IC50 [39]: 4370 nM
IC50 [40]: > 8000 nM
IC50 [41]: 5510 nM
IC50 [42]: 2030 nM
IC50 [43]: 1810 nM
IC50 [44]: > 8000 nM
IC50 [45]: 2900 nM
IC50 [46]: > 8000 nM
IC50 [47]: 4600 nM
IC50 [48]: > 8000 nM
IC50 [49]: > 8000 nM
IC50 [50]: > 8000 nM
IC50 [51]: 2860 nM
IC50 [52]: 6100 nM
IC50 [53]: > 8000 nM
IC50 [54]: 3960 nM
IC50 [55]: > 8000 nM
IC50 [56]: 7410 nM
IC50 [57]: > 8000 nM
IC50 [58]: > 8000 nM
IC50 [59]: 1450 nM

From ChEMBL document CHEMBL1201861, “Genomics of Drug Sensitity in Cancer screening data, Wellcome Trust Sanger Institute”
